From US20240384268A1, “Oligonucleotides” (Hudson Institute of Medical Research, priority 2021, published 2024) come the findings set out here.

The first series addresses T1, human TLR9 (Homo sapiens, UniProt Q9NR96).
T1 construct: HA; host or cells: 293XL-hTLR9-HA (HEK293)
T1 sequence (Q9NR96 26-1032): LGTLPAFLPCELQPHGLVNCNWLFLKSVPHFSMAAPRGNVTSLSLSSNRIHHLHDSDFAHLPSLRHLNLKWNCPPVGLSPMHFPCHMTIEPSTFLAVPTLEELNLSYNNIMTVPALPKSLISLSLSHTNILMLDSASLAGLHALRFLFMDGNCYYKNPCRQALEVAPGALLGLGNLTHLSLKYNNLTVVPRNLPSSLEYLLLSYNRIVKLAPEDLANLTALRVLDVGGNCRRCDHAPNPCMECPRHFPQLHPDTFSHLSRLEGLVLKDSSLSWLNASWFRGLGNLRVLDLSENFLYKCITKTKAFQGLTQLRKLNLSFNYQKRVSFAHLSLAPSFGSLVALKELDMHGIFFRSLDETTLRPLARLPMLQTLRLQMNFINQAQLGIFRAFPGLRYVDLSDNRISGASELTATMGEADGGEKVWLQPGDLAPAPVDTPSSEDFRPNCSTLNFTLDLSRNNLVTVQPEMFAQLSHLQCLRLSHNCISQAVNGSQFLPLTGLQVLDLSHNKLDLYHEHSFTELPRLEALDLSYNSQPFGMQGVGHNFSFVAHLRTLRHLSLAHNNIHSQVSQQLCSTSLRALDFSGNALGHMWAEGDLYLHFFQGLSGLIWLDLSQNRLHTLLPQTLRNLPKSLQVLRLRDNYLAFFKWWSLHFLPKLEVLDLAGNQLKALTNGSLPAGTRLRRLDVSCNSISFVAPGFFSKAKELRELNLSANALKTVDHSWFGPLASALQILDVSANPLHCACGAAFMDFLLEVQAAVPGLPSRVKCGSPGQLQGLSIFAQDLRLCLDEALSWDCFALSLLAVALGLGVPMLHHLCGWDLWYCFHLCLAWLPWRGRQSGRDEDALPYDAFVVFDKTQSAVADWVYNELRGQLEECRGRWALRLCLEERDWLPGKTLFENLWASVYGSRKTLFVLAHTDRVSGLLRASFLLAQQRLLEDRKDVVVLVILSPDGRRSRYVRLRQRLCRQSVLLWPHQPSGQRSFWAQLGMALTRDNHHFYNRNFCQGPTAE
The experiment in a line: HEK-TLR9 NF-κB-luciferase reporter, ODN2006 stimulation. It is filed as cell-based. The settings on record: MOE-modified ASO at 100 nM; averaged NF-κB-Luciferase relative to ODN2006 condition. (In general: A reporter such as luciferase makes a cellular process visible.)
In the case of “GGTCCATACCCAAGGCATCC (antisense; 2'-MOE modified, pattern not given here) [CTNN2B-2446 MOE]”, the “TLR9 100 nM” value was found to be 0.687.
For “GGTGGTCCACAACCCCTTTC (antisense; 2'-MOE modified, pattern not given here) [MB21D1-697 MOE]”, the “TLR9 100 nM” value amounted to 0.456.
As to “GGTGGTGGCCACCCATCTCA (antisense; 2'-MOE modified, pattern not given here) [CTNN2B-2479 MOE]”, the “TLR9 100 nM” value is recorded as 0.761.
For the sequence “GGTGTCCTTGCACGTGGCTT (antisense; 2'-MOE modified, pattern not given here) [EGFR-1016 MOE]”, the “TLR9 100 nM” value is recorded as 1.064.
Turning to “GTCCACATCCTGTGGCTCGT (antisense; 2'-MOE modified, pattern not given here) [CAMSAP1-2906 MOE]”, the “TLR9 100 nM” value was determined as 0.559.
For the sequence “GTCCTTGCACGTGGCTTCGT (antisense; 2'-MOE modified, pattern not given here) [EGFR-1013 MOE]”, the “TLR9 100 nM” value is recorded as 0.682.
On to “GTCTTGGCTTCGTGGAGCAG (antisense; 2'-MOE modified, pattern not given here) [MB21D1-520 MOE]”, for which the “TLR9 100 nM” value stood at 0.709.
“GTGTCCTTGCACGTGGCTTC (antisense; 2'-MOE modified, pattern not given here) [EGFR-1015 MOE]”: the “TLR9 100 nM” value is 0.784.
Consider “GTGTCTTCATCGGCCCTGCC (antisense; 2'-MOE modified, pattern not given here) [CAMSAP1-2113 MOE]”, for which the “TLR9 100 nM” value is on record as 0.611.
Still for that read-out and setting: then “TAGGCACTTTGCCTCCTTCT (antisense; 2'-MOE modified, pattern not given here) [EGFR-2859 MOE]”, with 0.808; and “TAGTCAAGGGCATATCCTAC (antisense; 2'-MOE modified, pattern not given here) [HPRT-732 MOE]”, with 0.787; and “TCAAAGGACTGAGGAAAGGG (antisense; 2'-MOE modified, pattern not given here) [CAMSAP1-6273 MOE]”, with 0.265.
Same read-out and setting: then “TCCAACACTTCGTGGGGTCC (antisense; 2'-MOE modified, pattern not given here) [HPRT-667 MOE]”, with 0.792.
For “TCGCACTTCAGTCTGAGCAG (antisense; 2'-MOE modified, pattern not given here) [MB21D1-719 MOE]”, the “TLR9 100 nM” value was 0.521.
As for “TGTCCTTGCACGTGGCTTCG (antisense; 2'-MOE modified, pattern not given here) [EGFR-1014 MOE]”, the “TLR9 100 nM” value turned out to be 0.764.
“TGTCTTCATCGGCCCTGCCT (antisense; 2'-MOE modified, pattern not given here) [CAMSAP1-2112 MOE]”: the “TLR9 100 nM” value is given as 0.697.
As to “TGTGATGGCCTCCCATCTCC (antisense; 2'-MOE modified, pattern not given here) [HPRT-332 MOE]”, the “TLR9 100 nM” value is given as 0.674.
On to “TTCTGCAGCTTCCTTGTCCT (antisense; 2'-MOE modified, pattern not given here) [CTNN2B-2136 MOE]”, for which the “TLR9 100 nM” value is reported as 0.746.
“TTGCACACTTCGTACCCAAA (antisense; 2'-MOE modified, pattern not given here) [CAMSAP1-4915 MOE]”: the “TLR9 100 nM” value came out at 0.894.
Take “TTGCCATGCTGGCTCGGACT (antisense; 2'-MOE modified, pattern not given here) [CAMSAP1-2584 MOE]”: the “TLR9 100 nM” value is 0.516.
“TTGGCTCGGCTTGCCTACTT (antisense; 2'-MOE modified, pattern not given here) [CAMSAP1-5594 MOE]”: the “TLR9 100 nM” value is reported as 0.705.

The series is the same for the next values; noted with them: MOE-modified ASO at 500 nM; averaged NF-κB-Luciferase relative to ODN2006 condition.
For “GGTCCATACCCAAGGCATCC (antisense; 2'-MOE modified, pattern not given here) [CTNN2B-2446 MOE]”, the “TLR9 500 nM” value was found to be 0.453.
Same read-out and setting: as for “GGTGGTCCACAACCCCTTTC (antisense; 2'-MOE modified, pattern not given here) [MB21D1-697 MOE]”, the figure is 0.071; as for “GGTGGTGGCCACCCATCTCA (antisense; 2'-MOE modified, pattern not given here) [CTNN2B-2479 MOE]”, 0.317; as for “GGTGTCCTTGCACGTGGCTT (antisense; 2'-MOE modified, pattern not given here) [EGFR-1016 MOE]”, 0.714.
Turning to “GTCCACATCCTGTGGCTCGT (antisense; 2'-MOE modified, pattern not given here) [CAMSAP1-2906 MOE]”, the “TLR9 500 nM” value was 0.254.
“GTCCTTGCACGTGGCTTCGT (antisense; 2'-MOE modified, pattern not given here) [EGFR-1013 MOE]”: the “TLR9 500 nM” value turned out to be 0.602.
The same measure, in the same setting: as for “GTCTTGGCTTCGTGGAGCAG (antisense; 2'-MOE modified, pattern not given here) [MB21D1-520 MOE]”, the figure is 0.599; as for “GTGTCCTTGCACGTGGCTTC (antisense; 2'-MOE modified, pattern not given here) [EGFR-1015 MOE]”, 0.641; as for “GTGTCTTCATCGGCCCTGCC (antisense; 2'-MOE modified, pattern not given here) [CAMSAP1-2113 MOE]”, 0.201.
Same read-out and setting: as for “TAGGCACTTTGCCTCCTTCT (antisense; 2'-MOE modified, pattern not given here) [EGFR-2859 MOE]”, the figure is 0.914; as for “TAGTCAAGGGCATATCCTAC (antisense; 2'-MOE modified, pattern not given here) [HPRT-732 MOE]”, 0.462.
With “TCAAAGGACTGAGGAAAGGG (antisense; 2'-MOE modified, pattern not given here) [CAMSAP1-6273 MOE]”, the “TLR9 500 nM” value was determined as 0.040.
“TCCAACACTTCGTGGGGTCC (antisense; 2'-MOE modified, pattern not given here) [HPRT-667 MOE]”: the “TLR9 500 nM” value is given as 0.616.
In the case of “TCGCACTTCAGTCTGAGCAG (antisense; 2'-MOE modified, pattern not given here) [MB21D1-719 MOE]”, the “TLR9 500 nM” value came to 0.266.
Consider “TGTCCTTGCACGTGGCTTCG (antisense; 2'-MOE modified, pattern not given here) [EGFR-1014 MOE]”, for which the “TLR9 500 nM” value was determined as 0.623.
Regarding “TGTCTTCATCGGCCCTGCCT (antisense; 2'-MOE modified, pattern not given here) [CAMSAP1-2112 MOE]”, the “TLR9 500 nM” value came out at 0.480.
Same read-out and setting: as for “TGTGATGGCCTCCCATCTCC (antisense; 2'-MOE modified, pattern not given here) [HPRT-332 MOE]”, the figure is 0.782; as for “TTCTGCAGCTTCCTTGTCCT (antisense; 2'-MOE modified, pattern not given here) [CTNN2B-2136 MOE]”, 0.467.
As to “TTGCACACTTCGTACCCAAA (antisense; 2'-MOE modified, pattern not given here) [CAMSAP1-4915 MOE]”, the “TLR9 500 nM” value is reported as 0.524.
Consider “TTGCCATGCTGGCTCGGACT (antisense; 2'-MOE modified, pattern not given here) [CAMSAP1-2584 MOE]”, for which the “TLR9 500 nM” value was found to be 0.534.
Same read-out and setting: as for “TTGGCTCGGCTTGCCTACTT (antisense; 2'-MOE modified, pattern not given here) [CAMSAP1-5594 MOE]”, the figure is 0.445.
